Source: patent US9181255B2, “Fused heteroaromatic pyrrolidinones as SYK inhibitors” (Takeda Pharmaceutical Company Limited, priority 2009, dated 2015)

What follows are molecules tested against SYK (Homo sapiens, UniProt P43405) (assay: SYK inhibition assay: SYK-mediated phosphorylation of FAM-labeled substrate (Caliper microfluidic)). Conditions: read-out: SYK Inhibition (pIC50) (converted).
Format: biochemical

Question: Which IC50 does the source give for `Cc1cccc(Nc2nc(N[C@H](CC(C)C)C(N)=O)cc3c2C(=O)NC3)c1` [Example 57, (R)-4-Methyl-2-(3-oxo-4-(m-tolylamino)-2,3-dihydro-1H-pyrrolo[3,4-c]pyridin-6-ylamino)pentanamide] here?
Answer: 15.8 nM

Question: Which IC50 does the source give for `CC(C)C[C@@H](Nc1nc(-c2cnn3ccccc23)c2c(c1F)CNC2=O)C(N)=O` [Example 74, (R)-2-(7-Fluoro-3-oxo-4-(pyrazolo[1,5-a]pyridin-3-yl)-2,3-dihydro-1H-pyrrolo[3,4-c]pyridin-6-ylamino)-4-methylpentanamide] here?
Answer: 5.01 nM

Question: How did the IC50 turn out when `Cc1cccc(Nc2nc(N[C@@H]3COC[C@@H]3N)cc3c2C(=O)NC3)c1` (relative stereo) [Example 58, 6-(cis-4-Aminotetrahydrofuran-3-ylamino)-4-(m-tolylamino)-1H-pyrrolo[3,4-c]pyridin-3(2H)-one] was run?
Answer: 1580 nM

Question: With `CNC(=O)[C@@H](CC(C)C)Nc1nc(-c2cnn(C)c2)c2c(c1F)CNC2=O` [Example 107, (R)-2-(7-Fluoro-4-(1-methyl-1H-pyrazol-4-yl)-3-oxo-2,3-dihydro-1H-pyrrolo[3,4-c]pyridin-6-ylamino)-N,4-dimethylpentanamide] as the molecule, how does the IC50 read?
Answer: 501 nM

Question: With `N[C@H]1CCCC[C@H]1Nc1nc(-c2cnc3ccccn23)c2c(c1F)CNC2=O` [Example 51, 6-((1R,2S)-2-aminocyclohexylamino)-7-fluoro-4-(imidazo[1,2-a]pyridin-3-yl)-1H-pyrrolo[3,4-c]pyridin-3(2H)-one] as the molecule, how does the IC50 read?
Answer: 63.1 nM

Question: How did the IC50 turn out when `N[C@H]1COCC[C@H]1Nc1nc(-n2cnc(C(F)(F)F)c2)c2c(c1F)CNC2=O` [Example 130, 6-((3R,4R)-3-Aminotetrahydro-2H-pyran-4-ylamino)-7-fluoro-4-(4-(trifluoromethyl)-1H-imidazol-1-yl)-1H-pyrrolo[3,4-c]pyridin-3(2H)-one] was run?
Answer: 10000 nM

Question: How did the IC50 turn out when `N[C@H]1CCCC[C@H]1Nc1nc(-c2csc3ccccc23)c2c(c1F)CNC2=O` [Example 52, 6-((1R,2S)-2-aminocyclohexylamino)-4-(benzo[b]thiophen-3-yl)-7-fluoro-1H-pyrrolo[3,4-c]pyridin-3(2H)-one] was run?
Answer: 63.1 nM

Question: For `Cc1cccc(Nc2nc(NCC(N)C(F)(F)F)cc3c2C(=O)NC3)c1` (centres unmarked) [Example 56, 6-(2-Amino-3,3,3-trifluoropropylamino)-4-(m-tolylamino)-1H-pyrrolo[3,4-c]pyridin-3(2H)-one], which IC50 is on record?
Answer: 2510 nM

Question: How did the IC50 turn out when `Cc1ccc(-c2nc(N[C@H](CC(C)C)C(N)=O)c(F)c3c2C(=O)NC3)o1` [Example 115, (R)-2-(7-Fluoro-4-(5-methylfuran-2-yl)-3-oxo-2,3-dihydro-1H-pyrrolo[3,4-c]pyridin-6-ylamino)-4-methylpentanamide] was run?
Answer: 316 nM

Question: How did the IC50 turn out when `N[C@H]1COCC[C@H]1Nc1nc(-c2cnn(C(F)F)c2)c2c(c1F)CNC2=O` [Example 125, 6-((3R,4R)-3-Aminotetrahydro-2H-pyran-4-ylamino)-4-(1-(difluoromethyl)-1H-pyrazol-4-yl)-7-fluoro-1H-pyrrolo[3,4-c]pyridin-3(2H)-one] was run?
Answer: 10 nM

Question: `CS(=O)(=O)c1cccc(Nc2nc(N[C@@H]3CCCC[C@@H]3N)cc3c2C(=O)NC3)c1` [Example 33, 6-((1R,2S)-2-Aminocyclohexylamino)-4-(3-(methylsulfonyl)phenylamino)-1H-pyrrolo[3,4-c]pyridin-3(2H)-one] was tested. Which IC50 did it give?
Answer: 50.1 nM

Question: Which IC50 does the source give for `N[C@H]1CCCC[C@H]1Nc1nc2c(c(-c3csc4ccccc34)n1)C(=O)NC2` [Example 17, 2-((1R,2S)-2-Aminocyclohexylamino)-4-(benzo[b]thiophen-3-yl)-6,7-dihydro-5H-pyrrolo[3,4-c]pyrimidin-5-one] here?
Answer: 39.8 nM

Question: With `Cn1cc(-c2nc(N[C@@H]3CCCC[C@@H]3N)c(F)c3c2C(=O)NC3(C)C)cn1` [Example 120, 6-((1R,2S)-2-Aminocyclohexylamino)-7-fluoro-1,1-dimethyl-4-(1-methyl-1H-pyrazol-4-yl)-1H-pyrrolo[3,4-c]pyridin-3(2H)-one] as the molecule, how does the IC50 read?
Answer: 251 nM

Question: Which IC50 does the source give for `Cc1cccc(Nc2nc(NCCN)nc3c2C(=O)NC3)c1` [Example 40, 2-(2-Aminoethylamino)-4-(m-tolylamino)-6,7-dihydro-5H-pyrrolo[3,4-d]pyrimidin-5-one] here?
Answer: 251 nM
